The numbers were not newly measured in US9999577B2, “Cream gels comprising at least one retinoid and benzoyl peroxide” (GALDERMA RESEARCH & DEVELOPMENT, priority 2006, dated 2018), which cites them from elsewhere.

Like-named read-outs stand apart in the source and are kept apart here.

The conditions of series [1]: for Decomposition time of benzoyl peroxide: 40° C.
Assay in series [2]: not given
The source holds these as a separate data set.

Regarding `COc1ccc(-c2ccc3cc(C(=O)O)ccc3c2)cc1C12CC3CC(CC(C3)C1)C2` [adapalene, 6-(3-(1-adamantyl)-4-methoxyphenyl)-2-naphthoic acid], the “Retinoid decomposition in presence of benzoyl peroxide formulation” value (during 24 hours) is recorded as “no decomposition”.
`O=C(OOC(=O)c1ccccc1)c1ccccc1` [benzoyl peroxide]: the “Decomposition of benzoyl peroxide in suspension” value in series [1] (dispersed form in water and propylene glycol, storing for 90 days) is given as “not decomposed”. Besides, the “Decomposition time of benzoyl peroxide” value is reported as 1.4 days in series [1] (in PEG 400 (0.5 mg/g)), 29 days in series [1] (in ethanol) and 53 days in series [1] (in propylene glycol). Also, the “Solubility of benzoyl peroxide” value was 39.6 mg/g in series [2] (solvent PEG 400); 17.9 mg/g in series [2] (solvent ethanol); 0.15 mg/g in series [2] (solvent glycerol); 2.95 mg/g in series [2] (solvent propylene glycol); 0.36 mg/g in series [2] (solvent propylene glycol/water (75:25)); 0.000155 mg/g in series [2] (solvent water).
Regarding `CC1=C(/C=C/C(C)=C/C=C/C(C)=C/C(=O)O)C(C)(C)CCC1` [tretinoin], the “Retinoid decomposing in presence of benzoyl peroxide formulation” value reads like this: (2 hours) 50%; (4 hours) 95%.
